Results as given in publication PMC10341805, “Positive Allosteric Modulator of SERCA Pump NDC-1173 Exerts Beneficial Effects in Mouse Model of Alzheimer’s Disease” (International Journal of Molecular Sciences, 2023).
Read-outs that look alike come from different tables or passages of the source.

Experiments:
APP/PS1 mice [1] = experiment: Ca2+ imaging in APP/PS1 mice; design: species or system mouse
[2] = test system: activating transcription factor 6 (ATF6); experiment: qPCR of ER-stress marker ATF6 mRNA in hippocampus of treated APP/PS1 mice; format: in vivo, mouse; conditions: 30 mg/kg oral gavage 3 times per week for 8 weeks, vs untreated APP/PS1, normalized to Cyclophilin, mean ± SD
Description: (§1) As previously established in Alzheimer’s disease (AD) research, ER stress is an apparent consequence of protein misfolding within AD pathophysiology. In response to this ER stress, cells activate a group of signaling pathways known as the unfolded protein response (UPR) that aims to restore ER function so the cell may survive. […] We examined the mRNA expression levels of these ER-stress markers in the hippocampus of APP/PS1 mice treated with NUCC-0226446, NUCC-0226614, NUCC-0226646, and NDC-1173 compounds compared to untreated APP/PS1 mice utilizing real-time quantitative PCR using primer sets indicated in Table 2. There was significant reduction (p = 0.0002) in the ER-stress marker, Chop, after treatment with NDC-1173 compared to untreated APP/PS1 mice (n = 9–11) (Figure 4, Table 3). […]
(§2) At 10 months of age, mice were rapidly decapitated, and the entire hippocampus was dissected and snap-frozen using liquid nitrogen. […] Total RNA concentration and purity was then measured using a NanoDrop spectrophotometer. […] Data were exported from the RT PCR machine into an excel worksheet. %CVs were calculated between triplicate well CT values to rule out technical outliers. […] Relative expression was then analyzed following the comparative CT method ( 2^−∆∆CT method).

ryanodine receptor = experiment: Selectivity test on ryanodine receptor; format: biochemical; conditions: selectivity for SERCA
L-type Ca channel = experiment: Selectivity test on L-type Ca channel; format: biochemical; conditions: selectivity for SERCA
[3] = Pharmacokinetics in CD-1 mice (plasma and brain); format: in vivo, mouse
Method: Pharmacokinetics of NDC-1173 were assessed in CD-1 mice. The compound was formulated at 1 mg/mL in DMSO/Tween 80/water (10/10/80, vol/vol/vol) and dosed at 2 mg/kg intravenously (i.v.) or 10 mg/kg via oral gavage (P.O.) in triplicate. Blood was drawn at 0.25 h, 0.5 h, 1 h, 2 h, 4 h, 8 h, and 24 h into EDTA-containing tubes, and plasma was harvested via centrifugation. Plasma (10 μL) containing 50% acetonitrile in water (5 μL) was added to 200 µL of ACN containing an internal standard. The samples were vortexed for 30 s. After centrifugation at 4 °C and 4000 rpm for 15 min, the supernatant was diluted 3 times with water. Then, 20 µL of diluted supernatant was injected into the LC/MS/MS system for quantitative analysis. The samples were injected onto an Agilent ZORBAX XDB-Phenyl 5 μ column (50 × 2.10 mm). Mobile Phase A was water with 0.1% formic acid. Mobile Phase B was acetonitrile with 0.1% formic acid. Separation was achieved using a gradient of 70% A/30% B to 0% A/100% B over 2.10 min. A Shimadzu LCMS-8050 equipped with a turbo ion spray source was used for all analytical measurements. Data were fit using WinNonLin https://www.certara.com/software/phoenix-winnonlin/, accessed on 1 May 2023.

APP/PS1 mice [4] = experiment: Tolerability during 8 weeks of administration; format: in vivo, mouse; conditions: 30 mg/kg oral gavage 3 times per week for 8 weeks
Method: Vehicle or NDC 1173 was administered via oral gavage 3 times per week for 8 weeks at a dose of 30 mg/kg in a vehicle containing 10%DMSO/10%Tween80 in water at a 3 mg/mL concentration. The dose was chosen so that the drug would be on board while the first signs of amyloid plaques appear (6 mos) and before the time the disease had fully progressed. We chose to administer the drug 3 times per week to cause minimal stress to the mouse.

Na/K-ATPase = experiment: Selectivity test on Na/K-ATPase; format: biochemical; conditions: selectivity for SERCA
[5] = test system: C/EBP homologous protein (CHOP/Ddit3); experiment: qPCR of ER-stress marker CHOP mRNA in hippocampus of treated APP/PS1 mice; format: in vivo, mouse; conditions: 30 mg/kg oral gavage 3 times per week for 8 weeks, vs untreated APP/PS1, normalized to Cyclophilin, mean ± SD
Description: as §1, §2

[6] = test system: binding immunoglobulin protein (BiP/Grp78); experiment: qPCR of ER-stress marker BiP mRNA in hippocampus of treated APP/PS1 mice; format: in vivo, mouse; conditions: 30 mg/kg oral gavage 3 times per week for 8 weeks, vs untreated APP/PS1, normalized to Cyclophilin, mean ± SD
Description: as §1, §2

APP/PS1 mice [7] = experiment: Morris water maze (training and probe trial); format: in vivo, mouse; conditions: 30 mg/kg oral gavage 3 times per week for 8 weeks
Method: (§3) To evaluate the effects of NUCC-0226446, NUCC-0226614, NUCC-0226646, and NDC-1173 on cognitive readouts in the AD mouse model, we treated APP/PS1 male and female mice with vehicle (10%DMSO/10%Tween80 in water) or SERCA PAMs (30 mg/kg) via oral gavage three times per week for 8 weeks, starting at 6 months of age. Open-field, object-recognition, and water maze assays were performed following treatment with 8-month-old mice. To test for locomotor activity changes in response to SERCA PAMs treatment in APP/PS1, we used the open-field test. The results obtained with NUCC-0226446, NUCC-0226614, NUCC-0226646 are shown in Supplementary Figure S1 and results with NDC-1173 are shown in Figure 3. […] There was a significant sex difference in the open field (F(1,27) = […]), but there was no sex by treatment interaction found.
(§4) Vehicle or NDC 1173 was administered via oral gavage 3 times per week for 8 weeks at a dose of 30 mg/kg in a vehicle containing 10%DMSO/10%Tween80 in water at a 3 mg/mL concentration. […]
The water maze consisted of 3 phases pre-training, training, and probe trial. […] Ethovision XT (Version 15) tracking software recorded the latency to the platform. […] During the probe trial, the platform was not present within the pool and the search pattern of the mouse is measured. […]

[8] = test system: activating transcription factor 4 (ATF4); experiment: qPCR of ER-stress marker ATF4 mRNA in hippocampus of treated APP/PS1 mice; format: in vivo, mouse; conditions: 30 mg/kg oral gavage 3 times per week for 8 weeks, vs untreated APP/PS1, normalized to Cyclophilin, mean ± SD
Description: as §1, §2

APP/PS1 mice [9] = experiment: Object recognition task; format: in vivo, mouse; conditions: 30 mg/kg oral gavage 3 times per week for 8 weeks, test 24 h after training
Method: as §3, §4
The object recognition task (OR) was performed as previously described. […] Interaction was determined by the length of time the mouse’s nose was within 1 cm of a tightly drawn zone around each object. […] Time spent interacting with each object was then measured using Ethovision XT software (Version 15). […]

[10] = test system: X-box binding protein 1 spliced variant (XBP1spl); experiment: qPCR of ER-stress marker XBP1spl mRNA in hippocampus of treated APP/PS1 mice; format: in vivo, mouse; conditions: 30 mg/kg oral gavage 3 times per week for 8 weeks, vs untreated APP/PS1, normalized to Cyclophilin, mean ± SD
Description: as §1, §2

[11] = CD-1, mouse, plasma, oral administration 10 mg/kg

| Functional effect on ryanodine receptor (ryanodine receptor) | half-life ([3]; CD-1, mouse, brain, oral administration 10 mg/kg, read-out: Brain t1/2 (converted)) | Kp ([3]; CD-1, mouse, brain/plasma, oral administration 10 mg/kg, read-out: Brain/plasma ratio) | AUC [3, 11] | Cmax [3, 11] | half-life ([3]; CD-1, mouse, plasma, oral administration 10 mg/kg, read-out: Plasma t1/2 (converted)) | bioavailability ([3]; CD-1, mouse, plasma, oral, 10 mg/kg P.O. vs 2 mg/kg i.v.) | Brain concentration at 2 h ([3]; oral administration 10 mg/kg) | Functional effect on Na/K-ATPase (Na/K-ATPase) | Compound | Effect on Ca2+ homeostasis (APP/PS1 mice [1]) | Fold-change of ATF6 mRNA expression [2] | Functional effect on L-type Ca channel (L-type Ca channel) | Adverse effects or weight loss (APP/PS1 mice [4]) | Fold-change of CHOP mRNA expression [5] | Fold-change of BiP mRNA expression [6] | Spatial learning in water maze training (4 days) vs vehicle (APP/PS1 mice [7]) | Spatial memory in water maze probe trial (time in target quadrant) vs vehicle (APP/PS1 mice [7]; 24 h after last training) | Fold-change of ATF4 mRNA expression [8] | Object memory (time spent with novel object) vs vehicle (APP/PS1 mice [9]) | Fold-change of XBP1spl mRNA expression [10] |
| --- | --- | --- | --- | --- | --- | --- | --- | --- | --- | --- | --- | --- | --- | --- | --- | --- | --- | --- | --- | --- |
| – | – | – | – | – | – | – | – | – | Cc1ccc2cccc(NC(=O)c3ccc(OC(C)C)cc3)c2n1 [CDN-1163] | restores normal Ca^2+ homeostasis | – | – | – | – | – | – | – | – | – | – |
| no significant functional effects | 1.1 h | 2.8 | 375 ng·h/mL | 1250 nM | 0.9 h | 25.6% | 2500 nM | no significant functional effects | COc1c(C)cccc1C(=O)Nc1cccc2ccc(C)nc12 [NDC-1173, 2-methoxy-3-methyl-N-(2-methylquinolin-8-yl)benzamide] | – | 0.79 ± 0.327 | no significant functional effects | no adverse effects or weight loss | 0.52 ± 0.195 | 0.74 ± 0.401 | did not have better performance in spatial learning | spent more time in the quadrant where the escape platform was located | 1.17 ± 0.496 | significant increase in time spent with the novel object | 0.72 ± 0.577 |
